Source: patent US12479892B2, “Immunogenic protein against gonococcal infection” (priority 2019, dated 2025)
Where two headings read alike, the source gives them in different places.

Legend:
NHBANg = NHBANg (Neisseria gonorrhoeae, UniProt B4RQT3); experiment: SPR analysis of glycan binding; conditions: for SPR binding, in words: glycans 100 μM to 1 nM
Procedure: Surface plasmon resonance (SPR) was performed using a BIAcore T200 instrument with recombinant NHBANg (100 μg/ml) immobilized on flow cells 2-4 by amine coupling on series S CMS sensor chips (GE Healthcare) as described previously. Flow cell 1 was used as the reference cell and immobilized with ethanolamine only. Single cycle kinetics was used to calculate the affinity (KD) of interactions with glycans run in 1:5 dilution series at concentrations between 100 μM to 1 nM. Results were analysed using BIAcore T200 software 2.0.2.

NHBANm = NHBANm (Neisseria meningitidis serogroup B, UniProt Q7DD37); conditions: cited from earlier work
[1] = system: N. gonorrhoeae 1291 ΔNHBA; experiment: Normal human serum survival assay; format: cell-based, Neisseria gonorrhoeae; conditions: ΔNHBA mutant; 10% normal human serum, 60 minutes; 6 μM heparin pre-incubation
Procedure: Resistance of N. gonorrhoeae to serum-mediated killing was tested as described previously with ˜10^4 CFU incubated in 10% (v/v) for 60 minutes at 37° C. and subsequently plated on GC agar. Bacteria were pre-incubated with 6 μM heparin 30 minutes where indicated. Bacterial survival was calculated as percent CFU (average from three replicate wells) relative to no treatment control.

[2] = system: NHBA-heparin interactions; experiment: SPR competition assay, blocking of NHBA-heparin interactions by sera; format: binding, Neisseria gonorrhoeae; conditions: 1:200 dilution of serum; heparin max 50 μM
Procedure: SPR competition assays were performed using a Pall Pioneer FE. Competition assays were performed as previously described using NextStep injections in the OneStep assay builder. Pre- and post-immune NHBA mouse sera were used as the first injection (A), and heparin as the second injection (B). Binding of heparin (maximum OneStep concentration of 50 μM) to NHBA was compared with and without serum, and with 1:200 dilution of pre- or post-immune serum. Data was collected using the Pioneer Software package and analyzed using Qdat analysis software. The percentage blocking was calculated based on the relative RMax of the heparin injection without serum (Injection A=buffer; B=heparin) versus the serum subtracted (Injection A=pre/postimmune serum; B=buffer) binding of heparin in the presence of serum ((Injection A=pre/postimmune serum; B=heparin).

[3] = system: N. gonorrhoeae adherence to cervical (tCX) epithelial cells; experiment: Blocking of gonococcal adherence by sera, cervical epithelial cells; format: cell-based, Neisseria gonorrhoeae
Procedure: (§1) Gonococcal adherence assays were performed as described previously with following modifications. Briefly, tCX and tUEC cell monolayers were infected (10 min at 37° C.) with approximately 1×10^5 CFU that was initially pre-incubated with serial dilutions of heat-inactivated mouse sera for 30 min at room temperature. Following the infection, cell monolayers were washed three times with warm HBSS to remove non-adherent bacteria and well contents plated onto GC agar. Results were calculated as the mean CFU from three replicate wells and presented as percentage of adherent bacteria relative to no antibody control. Statistical analysis performed with ANOVA and two-tailed Student's t-test. Each experiment was performed three times.

[4] = system: N. gonorrhoeae adherence to urethral (tUEC) epithelial cells; experiment: Blocking of gonococcal adherence by sera, urethral epithelial cells; format: cell-based, Neisseria gonorrhoeae
Procedure: as §1

[5] = single cycle kinetics, immobilised NHBANg, read-out: KD

In the case of CC(=O)N[C@H]1[C@H](O[C@H]2[C@@H](O)[C@@H](CO)O[C@@H](O[C@H]3[C@H](O)[C@@H](O)C(O)O[C@@H]3CO)[C@@H]2O)O[C@H](CO)[C@@H](O[C@@H]2O[C@H](CO)[C@H](O)[C@H](O)[C@H]2O)[C@@H]1O (stereo partly drawn) [LNnT, lacto N-neotetraose], the Kd (NHBANg) is reported as 4890 nM.

With “chondroitin 4-sulfate [chondroitin sulfate A]” the “SPR binding, in words” value (NHBANg) was “no concentration dependent binding”.

In the case of O=C[C@H](O)[C@@H](O)[C@H](O)[C@H](O)COP(=O)(O)O [β-Glc6P, glucose 6-phosphate], the Kd (NHBANm) is given as 56 nM.

In the case of “chondroitin 6-sulfate [chondroitin sulfate C]”, the “SPR binding, in words” value (NHBANg) is reported as “bound”.

For heparin, the Kd (NHBANg; [5]) was 4.4 nM and the “survival in human serum after pre-treatment, in words” value [1] was “increased survival”.

With CC(=O)N[C@H]1C(O)O[C@H](CO)[C@@H](O[C@@H]2O[C@H](CO)[C@H](O)[C@H](O)[C@H]2O)[C@@H]1O[C@@H]1O[C@@H](C)[C@@H](O)[C@@H](O)[C@@H]1O (stereo partly drawn) [Lewis X] the “fold greater affinity than for sialyl Lewis X” value (NHBANg; ratio of KD) was 5 fold and the Kd (NHBANg; [5]) was 680 nM.

For CC(=O)N[C@H]1[C@H](O[C@H]2[C@@H](O)[C@@H](CO)O[C@@H](O[C@H]3[C@H](O)[C@@H](O)C(O)O[C@@H]3CO)[C@@H]2O)O[C@H](CO)[C@@H](O[C@@H]2O[C@H](CO[C@]3(C(=O)O)C[C@H](O)[C@@H](NC(C)=O)[C@H]([C@H](O)[C@H](O)CO)O3)[C@H](O)[C@H](O)[C@H]2O)[C@@H]1O (stereo partly drawn) [LSTc], the Kd (NHBANg) was 240 nM.

In the case of C[C@@H]1O[C@@H](O[C@@H]2[C@@H](O)[C@@H](O)[C@@H](CO)O[C@H]2O)[C@@H](O)[C@H](O)[C@@H]1O [H-disaccharide], the “SPR binding, in words” value (NHBANg) is reported as “No concentration dependent binding”.

For hyaluronan, the “SPR binding, in words” value (NHBANg) was “No concentration dependent binding”.

For “dermatan sulfate [chondroitin sulfate B]”, the “SPR binding, in words” value (NHBANg) was “no concentration dependent binding”.

Molecule chondroitin sulfate has a Kd (NHBANg; [5]) of 73 nM.

Molecule CC(=O)N[C@H]1[C@H](O[C@H]2[C@@H](O)[C@@H](CO)O[C@@H](O[C@H]3[C@H](O)[C@@H](O)C(O)O[C@@H]3CO)[C@@H]2O)O[C@H](CO[C@]2(C(=O)O)C[C@H](O)[C@@H](NC(C)=O)[C@H]([C@H](O)[C@H](O)CO)O2)[C@@H](O)[C@@H]1O[C@@H]1O[C@H](CO)[C@H](O)[C@H](O)[C@H]1O (stereo partly drawn) [LSTb] has a Kd (NHBANg) of 2260 nM.

Work on heparan sulfate yielded a Kd (NHBANg; [5]) of 2790 nM.

Work on CC(=O)N[C@H]1[C@H]([C@H](O)[C@H](O)CO)O[C@@](O[C@H]2[C@@H](O)[C@@H](CO)O[C@@H](O[C@H]3[C@H](O[C@@H]4O[C@@H](C)[C@@H](O)[C@@H](O)[C@@H]4O)[C@@H](NC(C)=O)C(O)O[C@@H]3CO)[C@@H]2O)(C(=O)O)C[C@@H]1O (stereo partly drawn) [sialyl Lewis X] yielded a Kd (NHBANg; single cycle kinetics, immobilised NHBANg) of 3650 nM.

B1: NHBA-c: C-terminal fragment of NHBA of N. gonorrhoeae 1291 (SEQ ID NO:2, 183 amino acids); antisera to it, adjuvant not stated at place (protein)
chain: SLPAEIPLIPVNQADTLIVDGEAVSLTGHSGNIFAPEGNYRYLTYGAEKLPGGSYALRVQGEPAKGEMLAGTAVYNGEVLHFHMENGRPYPSGGRFAAKVDFGSKSVDGIIDSSDDLHMGTQKFKAAIDGNGFKGTWTENGGGDVSGRFYGPAGEEVAGKYSYRPTDAEKGGFGVFAGKKDRD
modifications: Neisseria gonorrhoeae (strain 1291)
In the case of B1, the “reduction of heparin binding to NHBA” value [2] is reported as 11%, the “adherence of serum-treated gonococci, in words” value ([3]; cervical epithelial cells, all tested concentrations, relative to untreated control) is reported as “significantly reduced adherence” and the “decrease of gonococcal adherence” value ([3]; tCX cells, 1:20 dilution of sera, relative to no antibody control) is reported as 8 fold. The “decrease of gonococcal adherence” value ([4]; tUEC cells, 1:20 dilution of sera, relative to no antibody control) was 5 fold and the “adherence of serum-treated gonococci, in words” value ([4]; urethral epithelial cells, all tested concentrations, relative to untreated control) was “significantly reduced adherence”.
